Assay results published in patent US20080045499A1, “Preferential Inhibition of Presenilin-1” (Elan Pharmaceuticals, Inc., priority 2006, published 2008).
Where two headings read alike, the source gives them in different places.

Tests used:
293sw = 293sw IC50 of gamma-secretase inhibitors; assay type: cell-based
[1] = molecular target: T1, Presenilin-1-comprised γ-secretase (Homo sapiens, UniProt P49768); assay: Aβ1-x ELISA in Presenilin-1 transfected PS1/PS2 double knockout mouse fibroblasts; assay type: cell-based; details: Aβ1-x, Presenilin-1 transfected cells, overnight
T1 construct: expressed in transfected cells; host or cells: mouse fibroblasts derived from PS1/PS2 double knockout cells, pCF vector
Description: (§1) A131-x represents any Aβ peptides longer than Aβ1-23, including Aβ38, Aβ40, and Aβ42, since Aβ1-x is defined operationally by an ELISA assay using proprietary antibody mAb 266 for capture and proprietary antibody mAb 3D6 for detection. The epitope for mAb266 is Aβ16-23, and the epitope for mAb 3D6 is Aβ1-5. […] Aβ40 ELISA employed antibodies mAb 266 as capture and 2G3 (specific for Ab40) as detection, respectively. Furthermore, Aβ42 ELISA employed antibodies mAb 266 as capture and 21F12 as detection, respectively. Hybridomas producing antibodies against Aβ16-23 were generated by standard murine fusion procedures as detailed in Kohler and Milstein (Nature 256:495 1975) and U.S. Pat. No. 4,666,829 which are hereby incorporated by reference in their entireties. See also “Detailed Description” herein. Briefly, two BALB/c mice immunized with Aβ13-28 conjugated to 2C-11 (a T-cell receptor monoclonal antibody) were sacrificed and the spleens removed. Mixed splenocytes were obtained by pressing the spleens through a 30 mesh stainless steel screen. These were fused with P3X63Ag8 murine myeloma cells (aminopterin sensitive) at a fusion ratio of 10:1 in 35% polyethylene-glycol. These cells were plated out in 96 well tissue culture plates in the presence of 2×10^6 thymocytes/ml. Hybridomas were selected for by growing the cells in the presence of aminopterin poisoned Dulbecco's modified Eagle's media augmented with hypoxanthine, thymine and 10% fetal bovine serum. Hybridomas were screened for reactivity against Aβ13-28 and AAP protein via ELISA. Positive clones were sub-cloned twice. Aliquots of the clones were frozen and stored in liquid nitrogen. Supernatants from positive clones were produced in large quantities for further purification of monoclonal antibodies.
(§2) For ELISA assays, each well of 96-well ELISA plates was coated with 100 μl of 10 μg/ml 266 in Well Coating Buffer (pH 8.5) at 4 degrees overnight, and blocked with 0.25% human BSA solution at 25 degrees for 120 minutes. The plate can be used directly without wash, after removing blocking solution.
(§3) ELISA assays were performed at room temperature. Fifty μl of conditioned medium from overnight culture of transfected cells, with or without gamma secretase inhibitors, were added to each well of ELISA plates, and incubated for 1 hour. After washing plates with Tris-buffered saline (TBS) plus 0.05% Tween-20, 50 μl biotinylated 3D6 antibody at 0.5 μg/ml was added to each well and incubate for 45 minutes. […] Next, plates were washed with Tris-buffered saline (TBS) plus 0.05% Tween-20, and 50 μl substrate (1-step slow TMB-Elisa, Pierce, Woburn, Mass., USA, catalogue number: 34024) was added to each well and incubated for 15 min. Finally, substrate reactions were terminate by adding to each well 15 ul 2 NH2SO4, and OD readings were obtained on SpectraMax Plus (Molecular Devices, Sunnyvale, Calif., USA). The Aβ concentration of samples was then obtained by comparing sample OD readings to those of standards.
(§4) EC50 values were derived by curve fitting of Aβ1-x levels, for samples treated with various concentrations of gamma secretase inhibitors, with XLfit software program (IDBS, Alameda, Calif., USA). Differences in EC50 values obtained for Presenilin-1 transfected cells and Presenilin-2 transfected cells exposed to a test compound served as an indicator of differential inhibition.
(§5) Transfected mouse fibroblasts derived from the PS1/PS2 double knockout cells are grown at 37 degree under 10% CO2 in Dulbecco's modified Eagle's medium (DMEM) containing 2-10% fetal bovine serum (FBS) and 100 μg/ml penicillin/streptomycin (Pen/Strp) (Invitrogen Corporation, Carlsbad, Calif., USA).
(§6) Cell culture medium is then removed from the transfected cell lines and analyzed for Aβ1-x levels by ELISA assay, as described in Example 1. ELISA assays are performed using ELISA plates coated with the mAb 266 to capture Aβ peptides and then by detecting Aβ peptides with biotinylated mAb 3D6.

[2] = molecular target: T2, Presenilin-2-comprised γ-secretase (Homo sapiens, UniProt P49810); assay: Aβ1-x ELISA in Presenilin-2 transfected PS1/PS2 double knockout mouse fibroblasts; assay type: cell-based; details: for EC50: Aβ1-x, Presenilin-2 transfected cells, overnight; for inhibition at 10 µM: compound concentration of 10 uM, estimated from the inhibition curve
T2 construct: expressed in transfected cells; host or cells: mouse fibroblasts derived from PS1/PS2 double knockout cells, pCF vector
Description: as §1, §2, §3, §4, §5, §6

[3] = test system: Presenilin-1-comprised γ-secretase relative to Presenilin-2-comprised γ-secretase; assay: PS1/PS2 selectivity: ratio of EC50 in Presenilin-2 and Presenilin-1 transfected cells; assay type: cell-based, human; details: EC50 of Presenilin-2 transfected cells over Presenilin-1 transfected cells
Description: as §4
Cell culture medium is then removed from the transfected cell lines and analyzed for Aβ1-x levels by ELISA assay, as described in Example 1. ELISA assays are performed using ELISA plates coated with the mAb 266 to capture Aβ peptides and then by detecting Aβ peptides with biotinylated mAb 3D6. EC50 values are derived for all of the test compounds. Differences in EC50 values obtained for Presenilin-1 transfected cells and Presenilin-2 transfected cells exposed to a test compound serve as an indicator of differential inhibition.
For example, several tested compounds are sulfonamide compounds, while several are non-sulfonamide compounds. The ratio of the EC50 value obtained for Presenilin-2 transfected cells and Presenilin-1 transfected cells (indicated in the last column of Table I) indicates the degree to which the test compound is capable of preferentially inhibiting Presenilin-1. […] In Table 2, the values shown in columns A, B and C are EC50 values (nM). Where inhibition was very low, EC50 values were not generated by the program; thus EC50 values are not provided. Rather, percent of inhibition was estimated based on the inhibition curve generated by the program. Percentages indicate percentage inhibition at a compound concentration of 10 uM. […]

[4] = column A, read-out: PS1 EC50 (nM) A
[5] = column B, read-out: PS1 EC50 (nM) B
[6] = column A, read-out: PS2 EC50* (nM) A
[7] = column B, read-out: PS2 EC50* (nM) B
[8] = column C, read-out: PS1 EC50 (nM) C
[9] = column C, read-out: PS2 EC50* (nM) C
[10] = column A, read-out: PS2 percentage inhibition, column A
[11] = column B, read-out: PS2 percentage inhibition, column B

SMILES | IC50 (293sw) [nM] | EC50 [1, 4] [nM] | EC50 [1, 5] [nM] | EC50 [2, 6] [nM] | EC50 [2, 7] [nM] | PS2/PS1 EC50 ratio [3] | EC50 [1, 8] [nM] | EC50 [2, 9] [nM] | inhibition at 10 µM [2, 10] [%] | inhibition at 10 µM [2, 11] [%]
C[C@@H](NC(=O)c1ccc(CN([C@@H]2CCCCNC2=O)S(=O)(=O)c2ccc(Cl)cc2)cc1)c1ccccc1 | 16 | 57 | 44 | 60 | 91 | 1.5 |  |  |  | 
COc1ccc(CN([C@@H]2CCCCNC2=O)S(=O)(=O)c2ccc(Cl)cc2)cc1OC | 126 | 91 | 89 | 1290 | 1980 | 27 | 109 | 4540 |  | 
CCCCN([C@@H]1CCCCNC1=O)S(=O)(=O)c1ccc(Cl)cc1 | 192 | 1410 | 928 |  |  | >10 |  |  | 26 | 15
O=C(NCc1ccccc1)c1ccc(CN([C@@H]2CCCCNC2=O)S(=O)(=O)c2ccc(Cl)cc2)cc1 | 10 | 19 | 19 | 30 | 38 | 1.8 |  |  |  | 
O=C1NCCCC[C@H]1N(Cc1cnc(N2CCCCC2)s1)S(=O)(=O)c1ccc(Cl)cc1 | 121 | 370 | 263 |  |  | ˜30 |  |  | 47 | 44
O=C1NCCCC[C@H]1N(Cc1ccc(-c2nccs2)cc1)S(=O)(=O)c1ccc(Cl)cc1 | 77 | 30 | 50 | 585 | 412 | 10 | 74 | 553 |  | 
COc1ccc(CN([C@@H](CO)CC(C)C)S(=O)(=O)c2ccc(Cl)cc2)cc1OC | 123 | 385 | 364 |  |  | ˜26 |  |  | 47 | 48
CSc1ncccc1-c1nc(CN([C@@H]2CCCCNC2=O)S(=O)(=O)c2ccc(Cl)cc2)no1 | 112 | 212 | 116 | 2100 | 2580 | 11 |  |  |  | 
O=C1NCCCC[C@H]1N(Cc1ccc(-c2ncon2)cc1)S(=O)(=O)c1ccc(Cl)cc1 | 16 | 20 | 5.9 | 175 | 156 | 12 | 26 | 263 |  | 
O=C1NCCCC[C@H]1N(Cc1ccc2snnc2c1)S(=O)(=O)c1ccc(Cl)cc1 | 8 | 18 | 23 | 922 | 951 | 47 |  |  |  | 
Cn1nnc2cc(CN([C@@H]3CCCCNC3=O)S(=O)(=O)c3ccc(Cl)s3)ccc21 | 775 | 122 | 87 | 6410 | 5310 | 47 | 102 | 3000 |  | 
CCS(=O)(=O)CC[C@@H](C)N(c1cc(Cl)ccc1Cl)S(=O)(=O)c1ccc(Cl)cc1 | 182 | 153 | 868 | 5000 | 5700 | 10 | 598 |  |  | 
COc1ccc(CN(C2CC(C)CCC2C)S(=O)(=O)c2ccc(Cl)cc2)cc1 (stereo not shown) | 176 | 136 | 161 | 3000 | 3460 | 22 |  |  |  | 
O=C1NCCCC[C@H]1N(C/C=C/c1cccnc1)S(=O)(=O)c1ccc(Cl)cc1 | 42 | 46 | 65 | 4000 | 2780 | 61 |  |  |  | 
Cn1nnc2cc(CN([C@@H]3CCCCNC3=O)S(=O)(=O)c3ccc(Cl)nc3)ccc21 | 238 | 84 | 53 | 1980 | 1840 | 23 | 114 |  |  | 
CCC(C)N(C(C)CC)S(=O)(=O)c1ccc(Cl)nc1 (stereo not shown) | 388 | 1390 | 787 | 5860 | 3320 | 4 |  |  |  | 
O=C1NCCCC[C@H]1N(Cc1ccc2nccnc2c1)S(=O)(=O)c1ccc(Cl)cc1 | 9 | 36 | 31 | 1410 | 1040 | 37 |  |  |  | 
